According to US20240092774A1, “HETEROAROMATIC COMPOUNDS AND USES THEREOF” (HUTCHISON MEDIPHARMA LIMITED, priority 2020, published 2024):

Legend:
[1] = target: Recombinant human CSF1R kinase (Homo sapiens (Human), UniProt P07333); assay: Measurement of CSF1R kinase activity at molecular level (Z-LYTE); assay type: biochemical; settings: Z-LYTE Tyr 1 peptide
Experimental: Invitrogen, PV3227; • Development reagent B: Invitrogen, PV3295; • Development buffer: Invitrogen. P3127; • Stopping solution: Invitrogen, P3094; • Recombinant human CSF1R kinase: Invitrogen, P[…]; • 384 well plate, black: Corning. 3575; • Envision: Perkin Elmer. 2. […] The test compound was diluted in gradient to 4-fold the reaction concentration and the concentration of DMSO was kept at 8%. […] The mixture was mixed gently with a pipette. • 4) A phosphorylated peptide substrate solution (PP solution): 0.4 μL of Z-LYTETM Tyr1 phosphorylated peptide substrate was added to 99.6 μl of 1.33× kinase buffer. • 5) ATP solution: 10 mM of ATP was diluted to 760 μM with 1.33× kinase buffer to prepare ATP solution. • 6) Development solution: Development reagent B was diluted with Development buffer at a ratio of 1:200. 3. […] 2.5 μL of 4× test compound was added to each reaction well of the 384 plate, and the corresponding volume of 8% DMSO was added to the control well. The plate was placed on ice. […] After adding the reaction components, the 384-well plate was sealed and incubated at 25-30° C. for 1 h in dark. 2) Development Reaction 5 μL of Development solution was added to each well, sealed and incubated at 25-30° C. for another 1 h in dark. 3) Reaction Stopping and Plate Reading 5 μL of stopping solution was added to each well. The Coumarin value (excitation at 400 nm, emission at 445 nm) and Fluorescein value (excitation at 400 nm, emission at 520 nm) were measured, respectively. 4. […] Coumarin emission read-out (445 nm)/Fluorescein emission read-out (520 nm); • C3 445 nm: 100% phosphorylated Coumarin emission read-out; • C3 520 nm: 100% phosphorylated Fluorescein emission read-out; • C1 445 nm: 0% phosphorylated Coumarin emission read-out; • C1 520 nm: 0% phosphorylated Fluorescein emission read-out. […] 5. IC50 values: calculated by using software XL-FitTM (version 5.3) supplied by ID Business Solutions (Guildford, UK), which is an additional software to Microsoft Excel.

[2] = target: CSF1R phosphorylation in THP-1 cells (Homo sapiens (Human), UniProt P07333); assay: Detection of CSF1R phosphorylation activity at cell level (p-CSF1R ELISA, M-CSF stimulated THP-1 cells); assay type: cell-based; settings: THP-1 cells, M-CSF stimulation, p-CSF1R ELISA; read-out: IC50
Chain of CSF1R phosphorylation in THP-1 cells (P07333 20-972): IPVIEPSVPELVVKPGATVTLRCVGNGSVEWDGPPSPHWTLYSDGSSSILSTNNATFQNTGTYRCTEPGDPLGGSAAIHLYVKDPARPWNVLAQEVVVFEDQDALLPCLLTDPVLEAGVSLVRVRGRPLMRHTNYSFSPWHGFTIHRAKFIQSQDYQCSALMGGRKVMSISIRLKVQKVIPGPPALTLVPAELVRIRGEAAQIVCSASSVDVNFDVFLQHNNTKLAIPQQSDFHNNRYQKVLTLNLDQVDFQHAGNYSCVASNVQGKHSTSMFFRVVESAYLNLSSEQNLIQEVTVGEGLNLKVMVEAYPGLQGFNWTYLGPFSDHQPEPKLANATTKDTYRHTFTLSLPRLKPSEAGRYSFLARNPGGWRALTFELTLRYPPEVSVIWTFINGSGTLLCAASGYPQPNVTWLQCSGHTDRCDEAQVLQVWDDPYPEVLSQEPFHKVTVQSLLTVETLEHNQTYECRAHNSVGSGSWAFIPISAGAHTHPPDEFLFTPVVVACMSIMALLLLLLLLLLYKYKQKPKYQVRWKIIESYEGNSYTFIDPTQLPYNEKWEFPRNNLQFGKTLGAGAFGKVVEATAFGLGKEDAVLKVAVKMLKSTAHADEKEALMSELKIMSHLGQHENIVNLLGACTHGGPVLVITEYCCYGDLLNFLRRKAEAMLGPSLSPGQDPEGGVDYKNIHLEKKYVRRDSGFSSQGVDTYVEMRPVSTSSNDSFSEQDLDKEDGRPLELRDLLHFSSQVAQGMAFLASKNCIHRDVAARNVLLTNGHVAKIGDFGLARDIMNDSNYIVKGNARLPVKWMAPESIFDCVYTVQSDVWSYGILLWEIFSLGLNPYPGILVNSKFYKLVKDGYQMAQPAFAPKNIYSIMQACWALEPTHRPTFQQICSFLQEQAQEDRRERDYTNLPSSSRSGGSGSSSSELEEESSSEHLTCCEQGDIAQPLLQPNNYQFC
Experimental: THP-1 (ATCC), human acute monocytic leukemia cells.
3. Treatment of cells and preparation of lysis buffer
5 μL. of the diluted compound was added to the 50 μL cell culture system, the culture was cultured in a 5% CO2, 37° C. cell incubator for 60 min, 300 ng/mL of M-CSF was added to the cells, and the mixture was stimulated in the 37° C. cell incubator for 1 min, added 50 μL of cell lysis buffer, and stored in a refrigerator at −80° C.
100 μL/well of the p-CSF1R capture antibody diluted to 0.8 μg/mL with PBS was added to the ELISA plate, and the plate was coated on a shaker at room temperature overnight. The culture was washed with PBST, and then added blocking solution and incubated at room temperature for 2 h. The culture was washed with PBST, added 90 μL of cell lysis buffer, and incubated on a shaker at 25° C. for 2 h. The plate was washed with PBST three times, added 100 μL of anti-p-tyrosine-HRP detection antibody diluted with 0.1% PBS-BSA diluent, and incubated on a shaker at 25° C. for 2 h. The plate was washed with PBST washing liquid, added 100 μL of chromogenic substrate and incubated at room temperature for 10-20 min. The reaction was stopped by adding 50 μL of 2N H2SO4. The optical density signal (450/570 nm) of each well was detected in Labsystems Multiskan K3 or Envision.
wherein • Drug-treated well read-out: indicating the optical density signal of a cell well with the test compound treatment. • Background read-out: indicating the optical density signal of a well without cells but with cell lysis buffer. • Cell well read-out: indicating the optical density signal of a cell well not treated with the compound.
6. Calculation of IC50: obtained by using XL-Fit 5.3 software, […]

Chain of Recombinant human CSF1R kinase (P07333 20-972): as above

Row | SMILES | IC50 [1] [nM] | IC50 [2] [nM]
1 | Cc1cnc2ccc(Oc3ccc(OCc4ccc(F)cc4)nc3)cn2c1=O [Compound 3] | 81 | –
2 | Cc1cnc2ccc(Oc3ccc(OCc4ccc(F)c(Cl)c4)nc3)cn2c1=O [Compound 4] | 129 | –
3 | C#Cc1ccc(COc2ncc(Oc3ccc4ncc(C)c(=O)n4c3)cc2OC)cc1 [Compound 7] | 15 | –
4 | COc1cc(Oc2ccc3ncc(C)c(=O)n3c2)cnc1OCc1ccc(Cl)cc1 [Compound 19, 7-((6-((4-chlorobenzyl)oxy)-S-methoxypyridin-3-yl)oxy)-3-methyl-4H-pyrido[1,2-a]pyrimidin-4-one] | – | 31
5 | COc1cc(Oc2ccc3ncc(C)c(=O)n3c2)cnc1OCc1ccc(C(C)(C)C#N)cc1 [Compound 28] | 70 | –
6 | COc1ccc(COc2ncc(Oc3ccc4ncc(C)c(=O)n4c3)cc2C#N)cc1 [Compound 30] | 460 | –
7 | COc1ccc(COc2ncc(Oc3ccc4ncc(N)c(=O)n4c3)cc2C)cc1 [Compound 33] | 150 | –
8 | COc1ccc(COc2ncc(Oc3ccc4ncc(C)c(=O)n4c3)cc2C)cc1 [Compound 34] | 499 | –

Now from value to compound:

Row | IC50 [1] [nM] | IC50 [2] [nM] | SMILES
9 | 5 | 5 | Cn1cc(-c2cc(Oc3cnc4c(c3)OCC(c3ccc(C5CC5)cc3)O4)ccn2)cn1 (racemic) [Compound 48, (R/S)-3-(4-cyclopropylphenyl)-7-((2-(1-methyl-1H-pyrazol-4-yl)pyridin-4-yl)oxy)-2,3-dihydro-[1,4]dioxino[2,3-b]pyridine]
10 | 8 | 6 | Cn1cc(-c2cc(Oc3cnc4c(c3)OCC(c3ccc(C5CC5)cc3)O4)ccn2)cn1 (racemic) [Compound 51, (R/S)-3-(4-cyclopropylphenyl)-7-((2-(1-methyl-1H-pyrazol-4-yl)pyridin-4-yl)oxy)-2,3-dihydro-[1,4]dioxino[2,3-b]pyridine]
11 | 3 | 19 | Cn1cc(-c2cc(Oc3cnc4c(c3)OCC(c3ccc(C5CC5)nc3)O4)ccn2)cn1 (racemic) [Compound 53, (R/S)-3-(6-cyclopropylpyridin-3-yl)-7-((2-(1-methyl-1H-pyrazol-4-yl)pyridin-4-yl)oxy)-2,3-dihydro-[1,4]dioxino[2,3-b]pyridine]
12 | 2 | 22 | Cn1cc(-c2cc(Oc3cnc4c(c3)OCC(c3ccc(C5CC5)nc3)O4)ccn2)cn1 (racemic) [Compound 54, (R/S)-3-(6-cyclopropylpyridin-3-yl)-7-((2-(1-methyl-1H-pyrazol-4-yl)pyridin-4-yl)oxy)-2,3-dihydro-[1,4]dioxino[2,3-b]pyridine]
13 | 8 | 7 | O=c1ccnc2ccc(Oc3cnc4c(c3)OCC(c3ccc(C5CC5)cc3)O4)cn12 (racemic) [Compound 55, (R/S)-7-((3-(4-cyclopropylphenyl)-2,3-dihydro-[1,4]dioxino[2,3-b]pyridin-7-yl)oxy)-4H-pyrido[1,2-a]pyrimidin-4-one]
14 | 12 | 14 | O=c1ccnc2ccc(Oc3cnc4c(c3)OCC(c3ccc(C5CC5)cc3)O4)cn12 (racemic) [Compound 56, (R/S)-7-((3-(4-cyclopropylphenyl)-2,3-dihydro-[1,4]dioxino[2,3-b]pyridin-7-yl)oxy)-4H-pyrido[1,2-a]pyrimidin-4-one]
15 | 23 | 60 | Cn1cc(-c2cc(Oc3cnc4c(c3)O[C@H](c3ccc(C5CC5)cc3)CO4)ccn2)cn1 (single isomer, unassigned) [Compound 49, (R/S)-2-(4-cyclopropylphenyl)-7-((2-(1-methyl-1H-pyrazol-4-yl)pyridin-4-yl)oxy)-2,3-dihydro-[1,4]dioxino[2,3-b]pyridine]
16 | 73 | 197 | Cn1cc(-c2cc(Oc3cnc4c(c3)O[C@H](c3ccc(C5CC5)cc3)CO4)ccn2)cn1 (single isomer, unassigned) [Compound 50, (R/S)-2-(4-cyclopropylphenyl)-7-((2-(1-methyl-1H-pyrazol-4-yl)pyridin-4-yl)oxy)-2,3-dihydro-[1,4]dioxino[2,3-b]pyridine]
17 | 80 | – | COc1ccc([C@H]2COc3cc(Oc4ccc5nccc(=O)n5c4)cnc3O2)nc1 [Compound 77]
